PMC7031696 (Cell chemical biology, 2019)
Read-outs that look alike come from different tables or passages of the source.

Experiments:
[1] = test system: 3D7-MR4 trophozoite parasite-infected RBCs; assay: Metabolomic profiling (hydrophilic metabolite changes, UHPLC-MS); format: cell-based, Plasmodium falciparum
[2] = test system: asynchronous 3D7-A10 parasite cultures; assay: Standard 72-h exposure asexual blood stage susceptibility assay (IC50^72h); format: cell-based, Plasmodium falciparum; details: Plasmodium falciparum, 3D7, 72 h, read-out: Overall (72hr assay) Mean IC50 (IC50^72h)
[3] = test system: Plasmodium falciparum 3D7-A10 parasites; assay: Stage specificity assay (8-h exposure of synchronized stages, IC50^8h); format: cell-based; details: for IC50: Plasmodium falciparum

FC(F)(F)c1cccc(Nc2nc3ccccc3nc2Nc2cccc(C(F)(F)F)c2)c1 [MMV665794]
Log2(fold changes) 3-phosphoglycerate ([1]; metabolite 3-phosphoglycerate, log2 fold change): 0.1475 | Log2(fold changes) 4-Pyridoxic acid ([1]; metabolite 4-Pyridoxic acid, log2 fold change): 0.1397 | Log2(fold changes) 4-aminobutyrate ([1]; metabolite 4-aminobutyrate, log2 fold change): -0.1443 | Log2(fold changes) 4-phosphopantetheine ([1]; metabolite 4-phosphopantetheine, log2 fold change): 0.0000 | Log2(fold changes) 4-phosphopantothenate ([1]; metabolite 4-phosphopantothenate, log2 fold change): 0.0000 | Log2(fold changes) 5-aminopentanoic acid ([1]; metabolite 5-aminopentanoic acid, log2 fold change): 0.0000 | Log2(fold changes) 5-methyl-THF ([1]; metabolite 5-methyl-THF, log2 fold change): 0.0000 | Log2(fold changes) 5-phosphoribosyl-1-pyrophosphate ([1]; metabolite 5-phosphoribosyl-1-pyrophosphate, log2 fold change): 0.0000 | Log2(fold changes) 6-phospho-D-gluconate ([1]; metabolite 6-phospho-D-gluconate, log2 fold change): 0.0648 | Log2(fold change) HVDD ([1]; metabolite HVDD): 0.0000 | Log2(fold change) Hydroxyisocaproic acid ([1]; metabolite Hydroxyisocaproic acid): 0.0000 | Log2(fold change) IDP ([1]; metabolite IDP): 0.0000 | Log2(fold change) IMP ([1]; metabolite IMP): -0.1724 | Log2(fold change) Inositol ([1]; metabolite Inositol): 0.4519 | Log2(fold change) Isopentyl-PP ([1]; metabolite Isopentyl-PP): 0.0000 | Log2(fold change) L-arginino-succinate ([1]; metabolite L-arginino-succinate): 0.0000 | Log2(fold change) LD ([1]; metabolite LD): 0.2876 | Log2(fold change) Myristoyl/tetradecanoyl-CoA ([1]; metabolite Myristoyl/tetradecanoyl-CoA): 0.0000 | Log2(fold change) N-Acetyl-L-alanine ([1]; metabolite N-Acetyl-L-alanine): -0.5892 | Log2(fold change) N-acetyl-L-ornithine ([1]; metabolite N-acetyl-L-ornithine): -0.6613 | Log2(fold change) N-acetyl-glucosamine-1/6-phosphate ([1]; metabolite N-acetyl-glucosamine-1/6-phosphate): 0.0457 | Log2(fold change) N-acetyl-glutamate ([1]; metabolite N-acetyl-glutamate): 0.0432 | Log2(fold change) N-acetyl-glutamine ([1]; metabolite N-acetyl-glutamine): -0.6444 | Log2(fold change) N-carbamoyl-L-aspartate ([1]; metabolite N-carbamoyl-L-aspartate): 0.7842 | Log2(fold change) NAD+ ([1]; metabolite NAD+): -0.0023 | Log2(fold change) NADH ([1]; metabolite NADH): 0.0000 | Log2(fold change) NADP+ ([1]; metabolite NADP+): 0.2420 | Log2(fold change) NADPH ([1]; metabolite NADPH): 0.2872 | Log2(fold change) O-acetyl-L-serine ([1]; metabolite O-acetyl-L-serine): 0.0000 | Log2(fold change) Octoluse 8/1P ([1]; metabolite Octoluse 8/1P): -0.0525 | Log2(fold change) Octoluse Bisphosphate ([1]; metabolite Octoluse Bisphosphate): -0.0227 | Log2(fold change) PD ([1]; metabolite PD): -1.6060 | Log2(fold change) PE ([1]; metabolite PE): -1.2530 | Log2(fold change) PEE ([1]; metabolite PEE): -0.7348 | Log2(fold change) PEEK ([1]; metabolite PEEK): -2.1636 | Log2(fold change) PVNF ([1]; metabolite PVNF): -0.9738 | Log2(fold change) Pyroglutamic acid ([1]; metabolite Pyroglutamic acid): -0.1549 | Log2(fold change) Pyrophosphate ([1]; metabolite Pyrophosphate): 0.0000 | Log2(fold change) Ribose-5-phosphate ([1]; metabolite Ribose-5-phosphate): 0.0000 | Log2(fold change) S-adenosyl-L-homocysteine ([1]; metabolite S-adenosyl-L-homocysteine): -0.1116 | Log2(fold change) S-adenosyl-L-methioninamine ([1]; metabolite S-adenosyl-L-methioninamine): 0.0000 | Log2(fold change) S-adenosyl-L-methionine ([1]; metabolite S-adenosyl-L-methionine): 0.0000 | Log2(fold change) S-methyl-5'-thioadenosine ([1]; metabolite S-methyl-5'-thioadenosine): -0.0770 | Log2(fold change) SD ([1]; metabolite SD): -0.6103 | Log2(fold change) SDL ([1]; metabolite SDL): 0.0000 | Log2(fold change) SID ([1]; metabolite SID): 0.0000 | Log2(fold change) Sedoheptulose bisphosphate ([1]; metabolite Sedoheptulose bisphosphate): 0.0000 | Log2(fold change) Thiamine pyrophosphate ([1]; metabolite Thiamine pyrophosphate): 0.0000 | Log2(fold changes) UDP-D-glucose ([1]; metabolite UDP-D-glucose, log2 fold change): 0.0057 | Log2(fold changes) UDP-D-glucuronate ([1]; metabolite UDP-D-glucuronate, log2 fold change): 0.0333 | Log2(fold changes) UDP-N-acetyl-glucosamine ([1]; metabolite UDP-N-acetyl-glucosamine, log2 fold change): -0.0841 | Log2(fold changes) UDP ([1]; metabolite UDP, log2 fold change): -0.2966 | Log2(fold changes) UMP ([1]; metabolite UMP, log2 fold change): -0.1315 | Log2(fold changes) UTP ([1]; metabolite UTP, log2 fold change): -0.1979 | Log2(fold change) hydroxyphenylpyruvate ([1]; metabolite hydroxyphenylpyruvate): 0.0000 | Log2(fold change) hydroxyproline/Aminolevulinate ([1]; metabolite hydroxyproline/Aminolevulinate): 0.0000 | Log2(fold change) hypoxanthine ([1]; metabolite hypoxanthine): 0.0564 | Log2(fold change) indole ([1]; metabolite indole): 0.0000 | Log2(fold change) inosine ([1]; metabolite inosine): -0.1857 | Log2(fold change) isoleucine ([1]; metabolite isoleucine): 0.0000 | Log2(fold change) lactate ([1]; metabolite lactate): -0.1258 | Log2(fold change) leucine ([1]; metabolite leucine): 0.0000 | Log2(fold change) lysine ([1]; metabolite lysine): -1.0057 | Log2(fold change) malate ([1]; metabolite malate): -0.5114 | Log2(fold change) maleic acid ([1]; metabolite maleic acid): 0.0000 | Log2(fold change) methionine ([1]; metabolite methionine): 0.1032 | Log2(fold change) myo-inositol ([1]; metabolite myo-inositol): -0.1088 | Log2(fold change) nicotinamide mononucleotide ([1]; metabolite nicotinamide mononucleotide): 0.0000 | Log2(fold change) nicotinate ([1]; metabolite nicotinate): -0.0014 | Log2(fold change) ornithine ([1]; metabolite ornithine): -0.5221 | Log2(fold change) orotate ([1]; metabolite orotate): -0.1200 | Log2(fold change) orotidine-5'-phosphate ([1]; metabolite orotidine-5'-phosphate): -0.1502 | Log2(fold change) oxaloacetate ([1]; metabolite oxaloacetate): 0.0000 | Log2(fold change) p-aminobenzoate ([1]; metabolite p-aminobenzoate): 0.0000 | Log2(fold change) p-hydroxybenzoate ([1]; metabolite p-hydroxybenzoate): 0.0000 | Log2(fold change) pantothenate ([1]; metabolite pantothenate): -0.3232 | Log2(fold change) phenylalanine ([1]; metabolite phenylalanine): -0.3048 | Log2(fold change) phenylpyruvate ([1]; metabolite phenylpyruvate): 0.0000 | Log2(fold change) phosphoenolpyruvate ([1]; metabolite phosphoenolpyruvate): 0.2889 | Log2(fold change) prephenate ([1]; metabolite prephenate): 0.0000 | Log2(fold change) proline ([1]; metabolite proline): -0.1760 | Log2(fold change) pyridoxine ([1]; metabolite pyridoxine): -0.0343 | Log2(fold change) pyruvate ([1]; metabolite pyruvate): -0.4249 | Log2(fold change) riboflavin ([1]; metabolite riboflavin): 0.0000 | Log2(fold change) ribose ([1]; metabolite ribose): 0.0000 | Log2(fold change) ribose-phosphate ([1]; metabolite ribose-phosphate): -0.1845 | Log2(fold change) ribulose-5-phosphate ([1]; metabolite ribulose-5-phosphate): 0.0000 | Log2(fold change) serine ([1]; metabolite serine): -0.0943 | Log2(fold change) sn-glycerol-3-phosphate ([1]; metabolite sn-glycerol-3-phosphate): 0.1547 | Log2(fold change) succinate/Methylmalonic acid ([1]; metabolite succinate/Methylmalonic acid): 0.2773 | Log2(fold change) succinyl-CoA/methylmalonyl-CoA ([1]; metabolite succinyl-CoA/methylmalonyl-CoA): 0.0000 | Log2(fold change) taurine ([1]; metabolite taurine): 0.4682 | Log2(fold change) thiamine ([1]; metabolite thiamine): -0.4163 | Log2(fold change) threonine/homoserine ([1]; metabolite threonine/homoserine): -0.3057 | Log2(fold change) thymidine ([1]; metabolite thymidine): 0.0000 | Log2(fold changes) thymine ([1]; metabolite thymine, log2 fold change): 0.0000 | Log2(fold changes) trehalose-6-Phosphate ([1]; metabolite trehalose-6-Phosphate, log2 fold change): 0.0000 | Log2(fold changes) tryptophan ([1]; metabolite tryptophan, log2 fold change): -0.2265 | Log2(fold changes) tyrosine ([1]; metabolite tyrosine, log2 fold change): -0.1308 | Log2(fold changes) uridine ([1]; metabolite uridine, log2 fold change): -0.0071 | IC50 [2]: 91.3 nM | Ratio lowest IC50 8hr/IC50 72hr ([3]; 3D7-A10): 1.8 | IC50 ([3]; 3D7, read-out: Early rings Mean IC50 (IC50^8h), 8-h exposure 0–8 hr, 3D7-A10, survival at 60 h): 369 nM | IC50 ([3]; 3D7, read-out: Early trophozoites Mean IC50 (IC50^8h), 8-h exposure 16–24 hr, 3D7-A10, survival at 60 h): 210 nM | IC50 ([3]; 3D7, read-out: Late rings Mean IC50 (IC50^8h), 8-h exposure 8–16 hr, 3D7-A10, survival at 60 h): 590 nM | IC50 ([3]; 3D7, read-out: Late trophozoites Mean IC50 (IC50^8h), 8-h exposure 24–32 hr, 3D7-A10, survival at 60 h): 165 nM | IC50 ([3]; 3D7, read-out: Schizonts Mean IC50 (IC50^8h), 8-h exposure 32–40 hr, 3D7-A10, survival at 60 h): 203 nM
